For one experiment, the target named is Tyk2 (Homo sapiens (Human), UniProt P29597). The experiment is described as follows: pSTAT4 Cell Assay (MSD, NK92 cells). The format is cell-based. The settings on record: MSD.
The target in another experiment is JH2 domain of human Tyk2 (Homo sapiens (Human), UniProt P29597). Kind of experiment: JH2 Biochemical Assay (TR-FRET probe displacement). The format is binding. Conditions: TR-FRET probe displacement, JH2 domain of human Tyk2. Background: In TR-FRET formats the signal depends on donor and acceptor labels being close together.
Chain of JH2 domain of human Tyk2 (P29597 575-876): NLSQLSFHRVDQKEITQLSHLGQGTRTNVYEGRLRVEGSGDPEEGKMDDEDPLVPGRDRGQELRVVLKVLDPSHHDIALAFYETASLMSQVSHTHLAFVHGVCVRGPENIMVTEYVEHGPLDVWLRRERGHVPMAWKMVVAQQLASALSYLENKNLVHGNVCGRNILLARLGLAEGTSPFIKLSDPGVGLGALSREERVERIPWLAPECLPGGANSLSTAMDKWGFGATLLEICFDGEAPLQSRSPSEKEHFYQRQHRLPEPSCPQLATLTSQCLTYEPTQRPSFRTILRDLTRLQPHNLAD

pIC50: −log10 of the molar value.

Usually pIC50 stands for the IC50 on a negative log10 scale, so that one unit is a factor of ten. High values mean a low IC50, low ones a high IC50.

Chain of Tyk2 (P29597 whole entry, the tested form may be a part): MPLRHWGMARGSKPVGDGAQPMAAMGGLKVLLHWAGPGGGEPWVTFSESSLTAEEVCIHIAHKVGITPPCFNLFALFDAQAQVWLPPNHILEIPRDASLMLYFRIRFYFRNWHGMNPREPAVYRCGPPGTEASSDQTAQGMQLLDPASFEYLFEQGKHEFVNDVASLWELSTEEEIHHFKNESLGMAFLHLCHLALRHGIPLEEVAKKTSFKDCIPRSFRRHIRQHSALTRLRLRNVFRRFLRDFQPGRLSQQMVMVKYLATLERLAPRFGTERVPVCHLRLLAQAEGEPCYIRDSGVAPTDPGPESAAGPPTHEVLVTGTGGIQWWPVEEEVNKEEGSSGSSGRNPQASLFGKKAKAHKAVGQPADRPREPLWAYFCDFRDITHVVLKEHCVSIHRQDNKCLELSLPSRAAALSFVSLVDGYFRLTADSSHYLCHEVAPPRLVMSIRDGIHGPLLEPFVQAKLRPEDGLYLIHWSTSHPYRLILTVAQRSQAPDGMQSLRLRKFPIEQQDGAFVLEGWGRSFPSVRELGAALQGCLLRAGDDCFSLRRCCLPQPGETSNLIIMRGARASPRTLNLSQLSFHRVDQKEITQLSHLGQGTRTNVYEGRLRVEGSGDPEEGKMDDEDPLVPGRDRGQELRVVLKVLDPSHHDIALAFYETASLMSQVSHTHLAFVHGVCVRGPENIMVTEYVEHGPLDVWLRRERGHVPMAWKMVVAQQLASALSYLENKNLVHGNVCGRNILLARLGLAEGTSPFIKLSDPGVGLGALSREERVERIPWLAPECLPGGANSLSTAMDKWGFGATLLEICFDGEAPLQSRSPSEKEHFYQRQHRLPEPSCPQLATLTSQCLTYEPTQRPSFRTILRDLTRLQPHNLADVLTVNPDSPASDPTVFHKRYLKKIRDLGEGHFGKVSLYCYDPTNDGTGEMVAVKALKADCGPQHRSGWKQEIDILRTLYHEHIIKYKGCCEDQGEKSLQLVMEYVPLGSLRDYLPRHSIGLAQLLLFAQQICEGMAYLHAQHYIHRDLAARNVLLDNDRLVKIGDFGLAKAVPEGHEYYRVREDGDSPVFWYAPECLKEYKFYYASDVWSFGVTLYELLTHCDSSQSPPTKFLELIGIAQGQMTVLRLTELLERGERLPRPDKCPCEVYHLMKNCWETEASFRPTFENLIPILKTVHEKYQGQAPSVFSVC

Turning to `CCOc1cnc(NC(C)=O)cc1Nc1cc(-c2cnn(CCN(C)C)c2)nc(C(C)(F)F)n1` [Example 308, N-(4-((2-(1,1-difluoroethyl)-6-(1-(2-(dimethylamino)ethyl)-1H-pyrazol-4-yl)pyrimidin-4-yl)amino)-5-ethoxypyridin-2-yl)acetamide], the pIC50 against Tyk2 is 7.00 to 8.00; at JH2 domain of human Tyk2, at least 8.00.

`CCOc1cnc(NC(C)=O)cc1Nc1cc(-c2cnn(CC(F)(F)F)c2)nc(C(C)(F)F)n1` [Example 309, N-(4-((2-(1,1-difluoroethyl)-6-(1-(2,2,2-trifluoroethyl)-1H-pyrazol-4-yl)pyrimidin-4-yl)amino)-5-ethoxypyridin-2-yl)acetamide]: the pIC50 was 7.00 to 8.00 at Tyk2 and at least 8.00 at JH2 domain of human Tyk2.

For the compound `CCOc1cnc(NC(C)=O)cc1Nc1cc(-c2cnn(CCOC)c2)nc(C(C)(F)F)n1` [Example 310, N-(4-((2-(1,1-difluoroethyl)-6-(1-(2-methoxyethyl)-1H-pyrazol-4-yl)pyrimidin-4-yl)amino)-5-ethoxypyridin-2-yl)acetamide], the results for the pIC50 against Tyk2 and at JH2 domain of human Tyk2 were 7.00 to 8.00 and at least 8.00, respectively.

Take `CCOc1cnc(NC(C)=O)cc1Nc1cc(-c2cnn(C3CCC3)c2)nc(C(C)(F)F)n1` [Example 312, N-(4-((6-(1-cyclobutyl-1H-pyrazol-4-yl)-2-(1,1-difluoroethyl)pyrimidin-4-yl)amino)-5-ethoxypyridin-2-yl)acetamide]: the pIC50 on Tyk2 and at JH2 domain of human Tyk2 was at least 8.00 each time.

Turning to `CCOc1cnc(NC(C)=O)cc1Nc1cc(-c2cnn(CCN3CCOCC3)c2)nc(C(C)(F)F)n1` [Example 313, N-(4-((2-(1,1-difluoroethyl)-6-(1-(2-morpholinoethyl)-1H-pyrazol-4-yl)pyrimidin-4-yl)amino)-5-ethoxypyridin-2-yl)acetamide], the pIC50 was 7.00 to 8.00 against Tyk2 and at least 8.00 at JH2 domain of human Tyk2.

As to `CC(=O)Nc1cc(Nc2cc(C)nc(C(C)(F)F)n2)c(OC[C@H](C)OC(C)(C)C)cn1` [Example 318, (S)-N-(5-(2-(tert-butoxy)propoxy)-4-((2-(1,1-difluoroethyl)-6-methylpyrimidin-4-yl)amino)pyridin-2-yl)acetamide], the pIC50 is 6.00 to 7.00 at Tyk2 and at least 8.00 on JH2 domain of human Tyk2.

For `CCc1cc(COc2cnc(NC(C)=O)cc2Nc2cc(C)nc(C(C)(F)F)n2)on1` [Example 319, N-(4-((2-(1,1-difluoroethyl)-6-methylpyrimidin-4-yl)amino)-5-((3-ethylisoxazol-5-yl)methoxy)pyridin-2-yl)acetamide], the pIC50 on Tyk2 was 7.00 to 8.00; at JH2 domain of human Tyk2, at least 8.00.

As to `CC(=O)Nc1cc(Nc2cc(C)nc(C(C)(F)F)n2)c(OCc2cnc(C)o2)cn1` [Example 320, N-(4-((2-(1,1-difluoroethyl)-6-methylpyrimidin-4-yl)amino)-5-((2-methyloxazol-5-yl)methoxy)pyridin-2-yl)acetamide], the pIC50 against Tyk2 was 7.00 to 8.00; on JH2 domain of human Tyk2, at least 8.00.

For `CC(=O)Nc1cc(Nc2cc(C)nc(C(C)(F)F)n2)c(OC[C@@H](C)OC(C)(C)C)cn1` [Example 321, (R)-N-(5-(2-(tert-butoxy)propoxy)-4-((2-(1,1-difluoroethyl)-6-methylpyrimidin-4-yl)amino)pyridin-2-yl)acetamide], the figures for the pIC50 against Tyk2 and on JH2 domain of human Tyk2 were 7.00 to 8.00 and at least 8.00, respectively.

As for `COc1cc(COc2cnc(NC(C)=O)cc2Nc2cc(C)nc(C(C)(F)F)n2)on1` [Example 322, N-(4-((2-(1,1-difluoroethyl)-6-methylpyrimidin-4-yl)amino)-5-((3-methoxyisoxazol-5-yl)methoxy)pyridin-2-yl)acetamide], the pIC50 against Tyk2 is 7.00 to 8.00; at JH2 domain of human Tyk2 it was at least 8.00.

With `CC(=O)Nc1cc(Nc2cc(C)nc(C(C)(F)F)n2)c(OCc2ccsn2)cn1` [Example 323, N-(4-((2-(1,1-difluoroethyl)-6-methylpyrimidin-4-yl)amino)-5-(isothiazol-3-ylmethoxy)pyridin-2-yl)acetamide], the pIC50 against Tyk2 and on JH2 domain of human Tyk2 was at least 8.00 throughout.

Take `CC(=O)Nc1cc(Nc2cc(C)nc(C(C)(F)F)n2)c(OCC23COCC(C2)C3)cn1` [Example 324, N-(5-((3-oxabicyclo[3.1.1]heptan-1-yl)methoxy)-4-((2-(1,1-difluoroethyl)-6-methylpyrimidin-4-yl)amino)pyridin-2-yl)acetamide]: the figures for the pIC50 against Tyk2 and at JH2 domain of human Tyk2 were 7.00 to 8.00 and at least 8.00, respectively.

With `CC(=O)Nc1cc(Nc2cc(C)nc(C(C)(F)F)n2)c(OCc2nc(C)co2)cn1` [Example 325, N-(4-((2-(1,1-difluoroethyl)-6-methylpyrimidin-4-yl)amino)-5-((4-methyloxazol-2-yl)methoxy)pyridin-2-yl)acetamide], the pIC50 on Tyk2 is 7.00 to 8.00; on JH2 domain of human Tyk2, at least 8.00.

As to `COCC1(COc2cnc(NC(C)=O)cc2Nc2cc(C)nc(C(C)(F)F)n2)CC1` [Example 326, N-(4-((2-(1,1-difluoroethyl)-6-methylpyrimidin-4-yl)amino)-5-((1-(methoxymethyl)cyclopropyl)methoxy)pyridin-2-yl)acetamide], the pIC50 against Tyk2 was 7.00 to 8.00; on JH2 domain of human Tyk2, at least 8.00.

On to `CCc1cnc(COc2cnc(NC(C)=O)cc2Nc2cc(C)nc(C(C)(F)F)n2)o1` [Example 327, N-(4-((2-(1,1-difluoroethyl)-6-methylpyrimidin-4-yl)amino)-5-((5-ethyloxazol-2-yl)methoxy)pyridin-2-yl)acetamide], for which the pIC50 is 7.00 to 8.00 at Tyk2 and at least 8.00 at JH2 domain of human Tyk2.

Turning to `CC(=O)Nc1cc(Nc2cc(C)nc(C(C)(F)F)n2)c(OCCc2cccnc2F)cn1` [Example 328, N-(4-((2-(1,1-difluoroethyl)-6-methylpyrimidin-4-yl)amino)-5-(2-(2-fluoropyridin-3-yl)ethoxy)pyridin-2-yl)acetamide], the pIC50 against Tyk2 and on JH2 domain of human Tyk2 was at least 8.00 in each case.

Consider `CC(=O)Nc1cc(Nc2cc(C)nc(C(C)(F)F)n2)c(OCc2c(C)ncnc2C)cn1` [Example 330, N-(4-((2-(1,1-difluoroethyl)-6-methylpyrimidin-4-yl)amino)-5-((4,6-dimethylpyrimidin-5-yl)methoxy)pyridin-2-yl)acetamide], for which the results for the pIC50 against Tyk2 and on JH2 domain of human Tyk2 were at most 6.00 and 7.00 to 8.00, respectively.

In the case of `CCc1noc(COc2cnc(NC(C)=O)cc2Nc2cc(C)nc(C(C)(F)F)n2)n1` [Example 331, N-(4-((2-(1,1-difluoroethyl)-6-methylpyrimidin-4-yl)amino)-5-((3-ethyl-1,2,4-oxadiazol-5-yl)methoxy)pyridin-2-yl)acetamide], the figures for the pIC50 at Tyk2 and on JH2 domain of human Tyk2 were 6.00 to 7.00 and 7.00 to 8.00, respectively.

In the case of `CC(=O)Nc1cc(Nc2cc(C)nc(C(C)(F)F)n2)c(OC[C@H]2C[C@H](F)C2)cn1` [Example 332, N-(4-((2-(1,1-difluoroethyl)-6-methylpyrimidin-4-yl)amino)-5-(((1r,3r)-3-fluorocyclobutyl)methoxy)pyridin-2-yl)acetamide], the pIC50 is 7.00 to 8.00 on Tyk2 and at least 8.00 on JH2 domain of human Tyk2.

With `CC(=O)Nc1cc(Nc2cc(C)nc(C(C)(F)F)n2)c(OCc2ccc(C#N)o2)cn1` [Example 333, N-(5-((5-cyanofuran-2-yl)methoxy)-4-((2-(1,1-difluoroethyl)-6-methylpyrimidin-4-yl)amino)pyridin-2-yl)acetamide], the values for the negative logarithm of the IC50 (pIC50) against Tyk2 and at JH2 domain of human Tyk2 were 7.00 to 8.00 and at least 8.00, respectively.

On to `CC(=O)Nc1cc(Nc2cc(C)nc(C(C)(F)F)n2)c(OCc2scnc2C)cn1` [Example 334, N-(4-((2-(1,1-difluoroethyl)-6-methylpyrimidin-4-yl)amino)-5-((4-methylthiazol-5-yl)methoxy)pyridin-2-yl)acetamide], for which the pIC50 against Tyk2 is 6.00 to 7.00; on JH2 domain of human Tyk2 it was 7.00 to 8.00.

Take `CC(=O)Nc1cc(Nc2cc(C)nc(C(C)(F)F)n2)c(OCc2conc2C)cn1` [Example 335, N-(4-((2-(1,1-difluoroethyl)-6-methylpyrimidin-4-yl)amino)-5-((3-methylisoxazol-4-yl)methoxy)pyridin-2-yl)acetamide]: the figures for the pIC50 on Tyk2 and on JH2 domain of human Tyk2 were 6.00 to 7.00 and at least 8.00, respectively.

For the compound `COC1(COc2cnc(NC(C)=O)cc2Nc2cc(C)nc(C(C)(F)F)n2)CCOCC1` [Example 337, N-(4-((2-(1,1-difluoroethyl)-6-methylpyrimidin-4-yl)amino)-5-((4-methoxytetrahydro-2H-pyran-4-yl)methoxy)pyridin-2-yl)acetamide], the pIC50 against Tyk2 was 7.00 to 8.00; on JH2 domain of human Tyk2, at least 8.00.

Regarding `CC(=O)Nc1cc(Nc2cc(C)nc(C(C)(F)F)n2)c(OCc2nc(C)c(C)o2)cn1` [Example 338, N-(4-((2-(1,1-difluoroethyl)-6-methylpyrimidin-4-yl)amino)-5-((4,5-dimethyloxazol-2-yl)methoxy)pyridin-2-yl)acetamide], the pIC50 on Tyk2 was 7.00 to 8.00; on JH2 domain of human Tyk2, at least 8.00.

For `CC(=O)Nc1cc(Nc2cc(C)nc(C(C)(F)F)n2)c(OCc2ncc(C)o2)cn1` [Example 341, N-(4-((2-(1,1-difluoroethyl)-6-methylpyrimidin-4-yl)amino)-5-((5-methyloxazol-2-yl)methoxy)pyridin-2-yl)acetamide], the pIC50 is 7.00 to 8.00 against Tyk2 and at least 8.00 on JH2 domain of human Tyk2.

Turning to `CC(=O)Nc1cc(Nc2cc(C)nc(C(C)(F)F)n2)c(OCc2ncc(C3CC3)o2)cn1` [Example 342, N-(5-((5-cyclopropyloxazol-2-yl)methoxy)-4-((2-(1,1-difluoroethyl)-6-methylpyrimidin-4-yl)amino)pyridin-2-yl)acetamide], the pIC50 against Tyk2 was 6.00 to 7.00; on JH2 domain of human Tyk2, at least 8.00.

As for `CC(=O)Nc1cc(Nc2cc(C)nc(C(C)(F)F)n2)c(OCc2nc(C)ns2)cn1` [Example 343, N-(4-((2-(1,1-difluoroethyl)-6-methylpyrimidin-4-yl)amino)-5-((3-methyl-1,2,4-thiadiazol-5-yl)methoxy)pyridin-2-yl)acetamide], the pIC50 against Tyk2 was 7.00 to 8.00; at JH2 domain of human Tyk2, at least 8.00.

As to `CC(=O)Nc1cc(Nc2cc(C)nc(C(C)(F)F)n2)c(OCc2cnc(C3CC3)o2)cn1` [Example 344, N-(5-((2-cyclopropyloxazol-5-yl)methoxy)-4-((2-(1,1-difluoroethyl)-6-methylpyrimidin-4-yl)amino)pyridin-2-yl)acetamide], the pIC50 against Tyk2 is 7.00 to 8.00; at JH2 domain of human Tyk2 it was at least 8.00.

For the origin of these results see patent US20260028365A1 (BIOGEN MA INC., priority 2022, published 2026).
